According to US8632846B2, “Apparatus and methods for loading a drug eluting medical device” (Medtronic Vascular, Inc., priority 2010, dated 2014):

Assay: solubility of sirolimus in solvents / dispersion media
Type: physicochemical
Procedure: Solution 524 is a homogeneous mixture in which therapeutic substance 112 dissolves within a solvent or a solvent mixture. In one embodiment, solution 524 includes a high-capacity solvent 528 which is an organic solvent that has a high capacity to dissolve therapeutic substance 112. High capacity as utilized herein is defined as an ability to dissolve therapeutic substance 112 at concentrations greater than 500 mg of substance per milliliter of solvent. Examples of high capacity drug dissolving solvents for sirolimus and similar substances include but are not limited to tetrahydrofuran (THF), di-chloromethane (DCM), chloroform, and di-methyl-sulfoxide (DMSO). In addition to the high-capacity solvent, solution 524 may include an excipient 526 in order to assist in drug elution. In one embodiment, excipient 526 may be a surfactant such as but not limited to sorbitan fatty acid esters such as sorbitan monooleate and sorbitan monolaurate, polysorbates such as polysorbate 20, polysorbate 60, and polysorbate 80, cyclodextrins such as 2-hydroxypropyl-beta-cyclodextrin and 2,6-di-O-methyl-beta-cyclodextrin, sodium dodecyl sulfate, octyl glucoside, and low molecular weight poly(ethylene glycol)s. In another embodiment, excipient 526 may be a hydrophilic agent such as but not limited to salts such as sodium chloride and other materials such as urea, citric acid, and ascorbic acid. […]

With `CO[C@H]1C[C@@H]2CC[C@@H](C)[C@@](O)(O2)C(=O)C(=O)N2CCCC[C@H]2C(=O)O[C@H]([C@H](C)C[C@@H]2CC[C@@H](O)[C@H](OC)C2)CC(=O)[C@H](C)/C=C(\C)[C@@H](O)[C@@H](OC)C(=O)[C@H](C)C[C@H](C)/C=C/C=C/C=C/1C` [sirolimus] the solubility in hexane (hexane) was “insoluble” and the solubility in water (water) was “insoluble”.
